The record followed here is patent US20250197842A1, “IMPROVING ENZYMATIC CHANNELING EFFICIENCY VIA MIXED NANOPARTICLE SCAFFOLDS WITHIN SELF-ASSEMBLED NANOPARTICLE ENZYME CLUSTERS” (The Government of the United States of America, as …, priority 2023, published 2025).

In series [1] the target is T1, E. coli BL21(DE3) lactate dehydrogenase LDH (EC 1.1.1.28), N-terminal (His)6, SEQ ID NO 2, assembled on 625 QDs (Escherichia coli, UniProt P52643).
T1 sequence (P52643 with tags, fused parts or gaps): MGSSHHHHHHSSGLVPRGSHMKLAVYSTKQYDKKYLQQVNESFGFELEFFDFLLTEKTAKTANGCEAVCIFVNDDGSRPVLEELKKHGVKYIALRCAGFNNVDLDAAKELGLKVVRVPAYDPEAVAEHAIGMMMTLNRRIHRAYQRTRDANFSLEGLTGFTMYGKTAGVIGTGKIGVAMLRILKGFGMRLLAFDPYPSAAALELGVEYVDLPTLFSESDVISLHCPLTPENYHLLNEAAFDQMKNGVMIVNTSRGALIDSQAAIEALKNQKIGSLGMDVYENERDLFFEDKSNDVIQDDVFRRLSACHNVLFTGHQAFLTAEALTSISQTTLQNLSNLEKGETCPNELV
The series can be described thus: Michaelis Menten kinetics of LDH assembled on 625 QDs. In kind it is biochemical, E. coli strain BL21(DE3). The conditions noted are these: apparent. An excerpt:
(§1) The latter are a quasi-two-dimensional QD-like material. As noted above in the Definitions section, NP or nanomaterial is used interchangeable to refer generically to these materials while QDs and NPLs are used to specify a given type. The NP materials were surface functionalized with the zwitterionic dihydrolipoic acid derivative compact ligand 4 (CL4, see U.S. Pat. No. 8,859,284), which replace the hydrophobic ligands utilized during nanomaterial crystal growth for colloidal stability in aqueous buffers. For enzyme attachment or bioconjugation to the NPs, self-assembly was driven by metal affinity coordination of the enzyme's pendant (His)6-motifs to the QD's ZnS shell.

Series [2] addresses T2, E. coli BL21(DE3) lactate dehydrogenase LDH (EC 1.1.1.28), N-terminal (His)6, SEQ ID NO 2, assembled on NPLs (Escherichia coli, UniProt P52643).
T2 sequence (P52643 with tags, fused parts or gaps): T1 sequence (P52643 with tags, fused parts or gaps)
The series can be described thus: Michaelis Menten kinetics of LDH assembled on NPLs. In kind it is biochemical, E. coli strain BL21(DE3). To be noted: ratio 1 LDH per NPL, apparent.
From the text: as §1

In series [3] the target is T3, E. coli BL21(DE3) lactate dehydrogenase LDH (EC 1.1.1.28), N-terminal (His)6, SEQ ID NO 2, assembled on 525 QDs (Escherichia coli, UniProt P52643).
T3 sequence (P52643 with tags, fused parts or gaps): T1 sequence (P52643 with tags, fused parts or gaps)
The series can be described thus: Michaelis Menten kinetics of LDH assembled on 525 QDs. The series is classed as biochemical, E. coli strain BL21(DE3). To be noted: apparent.
From the text: as §1

Series [4] addresses T4, E. coli BL21(DE3) lactate dehydrogenase LDH (EC 1.1.1.28), N-terminal (His)6, SEQ ID NO 2, assembled on 641 QDs (Escherichia coli, UniProt P52643).
T4 sequence (P52643 with tags, fused parts or gaps): T1 sequence (P52643 with tags, fused parts or gaps)
In words: Michaelis Menten kinetics of LDH assembled on 641 QDs. The conditions noted are these: apparent. In kind it is biochemical, E. coli strain BL21(DE3).
From the text: as §1

Series [5] has as its target T5, E. coli BL21(DE3) lactate dehydrogenase LDH (EC 1.1.1.28), N-terminal (His)6, SEQ ID NO 2, on mixed 525 QD/NPL (Escherichia coli, UniProt P52643).
T5 sequence (P52643 with tags, fused parts or gaps): T1 sequence (P52643 with tags, fused parts or gaps)
The series is classed as biochemical, E. coli strain BL21(DE3). The conditions noted are these: 0.75 nM 525 QD/0.5 nM NPL, ratio 2 per NP, apparent.
From the text: as §1

Series [6] concerns the target T6, E. coli BL21(DE3) lactate dehydrogenase LDH (EC 1.1.1.28), N-terminal (His)6, SEQ ID NO 2, free in solution (Escherichia coli, UniProt P52643).
T6 sequence (P52643 with tags, fused parts or gaps): T1 sequence (P52643 with tags, fused parts or gaps)
The series can be described thus: Michaelis Menten kinetics of LDH free in solution. The conditions noted are these: free enzyme (ratio 0), apparent. In kind it is biochemical, E. coli strain BL21(DE3).

The target of series [7] is E. coli BL21(DE3) pyruvate kinase PykA (EC 2.7.1.40), N-terminal (His)6, SEQ ID NO 1, on mixed 525 QD/NPL (Escherichia coli, UniProt P21599). The conditions noted are these: ratio 2 enzyme per NP.
Series [8] concerns the target E. coli BL21(DE3) pyruvate kinase PykA (EC 2.7.1.40), N-terminal (His)6, SEQ ID NO 1, free in solution (Escherichia coli, UniProt P21599). The conditions noted are these: free enzyme (ratio 0), apparent.
Substrate in series [9]: CC(=O)C(=O)O
In words: Michaelis Menten kinetics of LDH free in solution. In kind it is biochemical, E. coli strain BL21(DE3). To be noted: other: free enzyme (ratio 0), apparent, pH 8.0.

Chain of E. coli BL21(DE3) pyruvate kinase PykA (EC 2.7.1.40), N-terminal (His)6, SEQ ID NO 1, on mixed 525 QD/NPL (P21599 whole entry, added parts left off): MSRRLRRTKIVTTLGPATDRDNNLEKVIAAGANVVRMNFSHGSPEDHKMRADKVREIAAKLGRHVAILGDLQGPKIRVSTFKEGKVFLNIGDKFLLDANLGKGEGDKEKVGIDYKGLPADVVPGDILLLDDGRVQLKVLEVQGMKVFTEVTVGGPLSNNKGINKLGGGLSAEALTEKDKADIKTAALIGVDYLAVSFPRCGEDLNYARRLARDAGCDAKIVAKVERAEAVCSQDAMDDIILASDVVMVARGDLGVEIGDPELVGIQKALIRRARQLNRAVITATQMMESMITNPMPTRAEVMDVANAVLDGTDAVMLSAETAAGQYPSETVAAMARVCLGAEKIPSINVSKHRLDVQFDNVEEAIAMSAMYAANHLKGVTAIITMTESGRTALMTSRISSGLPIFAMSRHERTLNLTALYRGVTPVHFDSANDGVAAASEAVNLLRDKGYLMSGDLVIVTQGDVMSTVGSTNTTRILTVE
Chain of E. coli BL21(DE3) pyruvate kinase PykA (EC 2.7.1.40), N-terminal (His)6, SEQ ID NO 1, free in solution (P21599 whole entry, added parts left off): as above

By kcat/KM is commonly meant the second-order rate constant that governs catalysis at low substrate concentration. In general, kcat refers to the number of substrate molecules converted per active site and unit of time at saturation. Turning to `CC(=O)C(=O)O` [pyruvic acid], the VMax in series [1] (ratio 1 LDH per QD) was determined as 69.0 ± 1 nM/s; in series [1] (ratio 2 LDH per QD), 58.0 ± 3 nM/s; in [1] (ratio 4 LDH per QD), 49.0 ± 1 nM/s; in [1] (ratio 8 LDH per QD), 52.0 ± 1 nM/s; in [3] (ratio 1 LDH per QD) it was 40.0 ± 6 nM/s; in series [3] (ratio 2 LDH per QD), 45.0 ± 1 nM/s. For the same molecule, the VMax in [3] (ratio 4 LDH per QD) was determined as 40.0 ± 1 nM/s; in [3] (ratio 8 LDH per QD), 57.0 ± 1 nM/s; in series [4] (ratio 1 LDH per QD), 8.3 ± 0.1 nM/s; in series [4] (ratio 2 LDH per QD) it was 7.7 ± 0.3 nM/s; in [4] (ratio 4 LDH per QD), 3.6 ± 0.5 nM/s; in [4] (ratio 8 LDH per QD) it was 2.6 ± 0.3 nM/s. Further, the VMax in [5] is 53.0 ± 1 nM/s. Further, the kcat/KM came out at 0.021 ± 0.005 M⁻¹ s⁻¹ in series [1] (ratio 1 LDH per QD); 0.023 ± 0.004 M⁻¹ s⁻¹ in series [1] (ratio 2 LDH per QD); 0.018 ± 0.005 M⁻¹ s⁻¹ in [1] (ratio 4 LDH per QD); 0.017 ± 0.005 M⁻¹ s⁻¹ in [1] (ratio 8 LDH per QD); 0.015 ± 0.0005 M⁻¹ s⁻¹ in series [3] (ratio 1 LDH per QD); 0.02 ± 0.007 M⁻¹ s⁻¹ in [3] (ratio 2 LDH per QD). Also, the kcat/KM in [3] (ratio 4 LDH per QD) amounted to 0.014 ± 0.004 M⁻¹ s⁻¹; in [3] (ratio 8 LDH per QD), 0.015 ± 0.003 M⁻¹ s⁻¹; in [4] (ratio 1 LDH per QD), 0.006 ± 0.002 M⁻¹ s⁻¹; in series [4] (ratio 2 LDH per QD) it was 0.0038 ± 0.0007 M⁻¹ s⁻¹; in [4] (ratio 4 LDH per QD) it was 0.0021 ± 0.001 M⁻¹ s⁻¹; in series [4] (ratio 8 LDH per QD) it was 0.0013 ± 0.0003 M⁻¹ s⁻¹. The kcat/KM in [5] was determined as 0.019 ± 0.002 M⁻¹ s⁻¹; in [6] it was 0.015 ± 0.007 M⁻¹ s⁻¹. In addition, the kcat in [1] (ratio 4 LDH per QD) was found to be 19.5 ± 0.1 s⁻¹; in series [1] (ratio 8 LDH per QD), 20.7 ± 0.1 s⁻¹; in series [2], 32.3 s⁻¹; in [3] (ratio 1 LDH per QD) it was 15.9 ± 0.4 s⁻¹; in [3] (ratio 4 LDH per QD), 15.5 ± 0.1 s⁻¹; in series [4] (ratio 1 LDH per QD) it was 3.32 ± 0.1 s⁻¹. Also, the kcat was determined as 1.45 ± 0.1 s⁻¹ in series [4] (ratio 4 LDH per QD), 1.04 ± 0.1 s⁻¹ in series [4] (ratio 8 LDH per QD) and 13.3 s⁻¹ in series [6].

Turning to `C=C(OP(=O)(O)O)C(=O)O` [PEP, phosphoenolpyruvic acid], the turnover number (kcat) in [7] came to 13.3 s⁻¹; in series [8], 25 s⁻¹.

B1: E. coli BL21(DE3) lactate dehydrogenase LDH (EC 1.1.1.28), N-terminal (His)6, SEQ ID NO 2, free in solution (Escherichia coli K-12) (protein)
chain: T1 sequence (P52643 with tags, fused parts or gaps)
In general, Km refers to the substrate concentration at which the rate is half of its maximum. As a reminder, the Vmax is the top rate of the reaction or transport when substrate is in excess. Turning to B1, in series [9], the Km amounted to 900 ± 400 µM and the maximal velocity (Vmax) stood at 1.98 µM/min.
